From US20010003121A1, “Novel compounds” (AstraZeneca UK Limited, priority 1997, published 2001)

First: O=C(NCC12CC3CC(CC(C3)C1)C2)c1cc(O)ccc1Cl [Example 51, 2-Chloro-5-hydroxy-N-(tricyclo[3.3.1.1^3,7]dec-1-ylmethyl)-benzamide]
Second: O=C(NCC12CC3CC(CC(C3)C1)C2)c1cc(Cl)ccc1Cl [Example 61, 2,5-Dichloro-N-(tricyclo[3.3.1.1^3,7]dec-1-ylmethyl)-benzamide]
The melting point of the first is higher: 263 to 264 °C for the first, 161 to 162 °C for the second.

First: O=C(NCC12CC3CC(CC(C3)C1)C2)c1cccc([N+](=O)[O-])c1Cl [Example 52, 2-Chloro-3-nitro-N-(tricyclo[3.3.1.1^3,7]dec-1-ylmethyl)-benzamide]
Second: O=C(NCC12CC3CC(CC(C3)C1)C2)c1cccc(O)c1Cl [Example 59]
The melting point of the first is lower: 185 °C for the first, 234 to 235 °C for the second.

First: O=C(NCC12CC3CC(CC(C3)C1)C2)c1cc([N+](=O)[O-])ccc1Cl [Example 53, 2-Chloro-5-nitro-N-(tricyclo[3.3.1.1^3,7]dec-1-ylmethyl)-benzamide]
Second: O=C(NCC12CC3CC(CC(C3)C1)C2)c1cc(I)ccc1Cl [Example 80, 2-Chloro-5-iodo-N-(tricyclo[3.3.1.1^3,7]dec-1-ylmethyl)-benzamide]
The melting point of the first is higher: 178 °C for the first, 161.4 to 161.5 °C for the second.

First: CN(C)CCNc1cccc(C(=O)NCC23CC4CC(CC(C4)C2)C3)c1Cl [Example 56, 2-Chloro-3-(N,N-dimethylamino)ethylamino-N-(tricyclo[3.3.1.1^3,7]dec-1-ylmethyl)-benzamide]
Second: CN(C)CCNc1ccc(Cl)c(C(=O)NCC23CC4CC(CC(C4)C2)C3)c1 [Example 57, 2-Chloro-5-(N,N-dimethylamino)ethylamino-N-(tricyclo[3.3.1.1^3,7]dec-1-ylmethyl)-benzamide]
The melting point of the first is higher: 221 °C for the first, 215 °C for the second.

First: CN(C)CCOc1ccc(Cl)c(C(=O)NCC23CC4CC(CC(C4)C2)C3)c1 [Example 60, 2-Chloro-5-(N,N-dimethylamino)ethyloxy-N-(tricyclo[3.3.1.1^3,7]dec-1-ylmethyl)-benzamide]
Second: CNc1ccc(Cl)c(C(=O)NCC23CC4CC(CC(C4)C2)C3)c1 [Example 62, 2-Chloro-5-methylamino-N-(tricyclo[3.3.1.1^3,7]dec-1-ylmethyl)-benzamide]
The melting point of the first is lower: 144 to 147 °C for the first, 163 to 164 °C for the second.

COc1cc(OC)c(C)c(C(=O)NCC23CC4CC(CC(C4)C2)C3)c1 [Example 67, 3,5-Dimethoxy-2-methyl-N-(tricyclo[3.3.1.1^3,7]dec-1-ylmethyl)-benzamide] and COc1cc(OC)c(C)c(C(=O)NCC23CC4CC(CC(Cl)(C4)C2)C3)c1 [Example 79, 3,5-Dimethoxy-2-methyl-N-(3-chloro-tricyclo[3.3.1.1^3,7]dec-1ylmethyl)-benzamide] fall in the same range of melting point: 173 to 175 °C for the first, 173 to 175 °C for the second.

First: COc1cc(OC)cc(C(=O)NCC23CC4CC(CC(C4)C2)C3)c1 [Example 68]
Second: Cc1ccc(C)c(C(=O)NCCC23CC4CC(CC(C4)C2)C3)c1 [Example 75, 2,5-Dimethyl-N-(2-[tricyclo[3.3.1.1^3,7]dec-1-yl]ethyl)-benzamide]
The melting point of the first is lower: 130 to 133 °C for the first, 153 °C for the second.

First: O=C(NCC12CC3CC(CC(C3)C1)C2)c1cc(NCCNCC(O)c2ccccc2)ccc1Cl (stereo not shown) [Example 69, 5-(N-(2-Hydroxy-2-phenylethyl)-2-aminoethyl)amino-2-chloro-N-(tricyclo[3.3.1.1^3,7]dec-1-ylmethyl)-benzamide]
Second: O=C(NCC12CC3CC(CC(C3)C1)C2)c1cccc(NCCNCCc2c[nH]cn2)c1Cl [Example 77, 2-Chloro-3-(N-(2-[imidazoyl-4-yl]ethyl)-2-aminoethyl)amino-N-(tricyclo[3.3.1.1^3,7]dec-1-ylmethyl)-benzamide]
The melting point of the first is lower: 63 to 64 °C for the first, 86 to 87 °C for the second.

First: O=C(NCCC12CC3CC(CC(C3)C1)C2)c1ccccc1Cl [Example 72, 2-Chloro-N-(2-[tricyclo[3.3.1.1^3,7]dec-1-yl]ethyl)-benzamide]
Second: O=C(NCCC12CC3CC(CC(C3)C1)C2)c1cccc(Cl)c1Cl [Example 73, 2,3-Dichloro-N-(2-[tricyclo(3.3.1.1^3,7]dec-1-yl]ethyl)-benzamide]
The melting point of the first is lower: 125 to 127 °C for the first, 158 to 159 °C for the second.

First: Nc1ccc(Cl)c(C(=O)NCCC23CC4CC(CC(C4)C2)C3)c1 [Example 74, 5-Amino-2-chloro-N-(2-[tricyclo[3.3.1.1^3,7]dec-1-yl]ethyl)-benzamide]
Second: O=C(NCC12CC3CC(CC(Cl)(C3)C1)C2)c1ccccc1Cl [Example 76, 2-Chloro-N-(3-chloro-tricyclo[3.3.1.1^3,7]dec-1-ylmethyl)-benzamide]
The melting point of the first is lower: 147 to 149 °C for the first, 153 °C for the second.

Compound Cc1ccc(C)c(C(=O)NCC23CC4CC(CC(Cl)(C4)C2)C3)c1 [Example 78, 2,5-Dimethyl-N-(3-chloro-tricyclo[3.3.1.1^3,7]dec-1ylmethyl)-benzamide] has a melting point of 155 °C.

In the case of Cc1c(N)cc(N)cc1C(=O)NCC12CC3CC(CC(C3)C1)C2 [Example 66, 3,5-Diamino-2-methyl-N-(tricyclo[3.3.1.1^3,7]dec-1-ylmethyl)-benzamide], the melting point is reported as 220 °C (dec.).
